# Results from ChEMBL document CHEMBL1201862, “PubChem BioAssay data set” (2004).
# Activity calls are given as the source filed them.
# Tests used:
# [1] = target: DNA dC->dU-editing enzyme APOBEC-3A (Homo sapiens, UniProt P31941); experiment: Dose Response confirmation of small molecule APOBEC3A DNA Deaminase Inhibitors via a fluorescence-based single-stranded DNA deaminase assay. [Related pubchem assays (depositor defined):AID493011, AID493024]; type: functional
# [2] = target: DNA dC->dU-editing enzyme APOBEC-3G (Homo sapiens, UniProt Q9HC16); type: functional;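 note: Dose-response counterscreen measuring inhibition of APOBEC3G DNA deaminase activity, run while confirming APOBEC3A inhibitors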
# [3] = target: Eukaryotic translation initiation factor 4E (Mus musculus, UniProt P63073); experiment: blockers of eIF4G binding by eIF4E – biochemical, TR-FRET, dose response (AID 855); type: functional;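 note: potency for disrupting eIF4E binding to eIF4GI seen as loss of FRET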
# [4] = cells
# [5] = target: T1, RNA-binding protein pos-1 (Caenorhabditis elegans, UniProt G5EF15); experiment: disruptors of C. elegans POS-1 RNA interaction – biochemical, fluorescence polarization, dose response (AID 1964);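 note: purified POS-1 fused to maltose binding protein made in E. coli; potency of compounds blocking POS-1 binding to fluorescent RNA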
# T1 sequence (G5EF15 whole entry): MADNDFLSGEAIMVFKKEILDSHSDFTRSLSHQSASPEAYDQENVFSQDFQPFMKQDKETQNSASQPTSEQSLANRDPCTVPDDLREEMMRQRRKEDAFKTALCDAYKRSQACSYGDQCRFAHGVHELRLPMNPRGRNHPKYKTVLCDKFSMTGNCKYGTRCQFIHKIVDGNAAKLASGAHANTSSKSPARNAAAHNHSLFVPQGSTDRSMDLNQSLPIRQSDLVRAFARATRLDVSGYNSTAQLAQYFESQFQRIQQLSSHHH
# [6] = target: T2, Zinc finger protein mex-5 (Caenorhabditis elegans, UniProt Q9XUB2); experiment: potency of MEX-5 RNA-binding blockers – biochemical, C. elegans, fluorescence polarization, dose response (AID 1960)
# T2 sequence (Q9XUB2 whole entry): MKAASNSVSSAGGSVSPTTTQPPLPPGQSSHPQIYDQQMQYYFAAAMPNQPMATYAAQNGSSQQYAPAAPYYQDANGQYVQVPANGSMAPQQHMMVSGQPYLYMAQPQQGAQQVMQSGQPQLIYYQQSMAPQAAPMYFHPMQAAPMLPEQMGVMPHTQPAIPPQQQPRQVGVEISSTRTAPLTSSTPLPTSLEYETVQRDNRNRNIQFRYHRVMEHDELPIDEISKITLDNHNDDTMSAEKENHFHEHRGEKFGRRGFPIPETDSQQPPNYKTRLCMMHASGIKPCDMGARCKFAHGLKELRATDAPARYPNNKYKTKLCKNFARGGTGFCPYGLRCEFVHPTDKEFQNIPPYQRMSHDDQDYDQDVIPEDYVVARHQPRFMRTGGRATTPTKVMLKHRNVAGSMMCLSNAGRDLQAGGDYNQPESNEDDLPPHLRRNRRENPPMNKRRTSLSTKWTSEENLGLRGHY
# [7] = target: Keap1/Nrf2 (Homo sapiens, UniProt Q14145); experiment: disruptors of Keap1 binding to Nrf2 peptide – biochemical, fluorescence polarization, cherry-picked samples, dose response (AID 588683)
# [8] = target: Peroxisome proliferator-activated receptor gamma/Nuclear receptor coactivator 1 (Homo sapiens, UniProt P37231); experiment: TR-FRET dose response biochemical High Throughput Screening assay for agonists of the steroid receptor coactivator 1 (SRC-1) recruitment by the peroxisome proliferator-activated receptor gamma (PPAR gamma): non-selective agonists. [Related pubchem assays (depositor defined):AID1300, AID1808, AID504735, AID631]; type: protein assay
# [9] = target: Peroxisome proliferator-activated receptor gamma/Nuclear receptor coactivator 3 (Homo sapiens, UniProt P37231); experiment: TR-FRET dose response biochemical High Throughput Screening assay for agonists of the steroid receptor coactivator 3 (SRC-3) recruitment by the peroxisome proliferator-activated receptor gamma (PPAR gamma): non-selective agonists. [Related pubchem assays: 1301 (Confirmation screen.), 1048 (Primary screen.)]; type: functional
# [10] = target: Peroxisome proliferator-activated receptor gamma/Nuclear receptor coactivator 2 (Homo sapiens, UniProt P37231); experiment: TR-FRET dose response biochemical High Throughput Screening assay for agonists of the steroid receptor coactivator 2 (SRC-2) recruitment by the peroxisome proliferator-activated receptor gamma (PPAR gamma): non-selective agonists. [Related pubchem assays: 1297, 1032 ]; type: functional
# [11] = HEK-293T cell viability reduction – luminescence, B-cell screen hits, cytotoxicity control for BCR NF-kB inhibitor project, dose response (AID 489021); type: functional, cell-based;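 note: HEK-293T cells carrying an NF-kB luciferase reporter; cells exposed to compound for about 14 hours before viability readout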
# [12] = target: Tumor necrosis factor (Homo sapiens, UniProt P01375); experiment: analog potency on TNFa NF-kB signaling – cell-based, revised, SAR follow-up (AID 2337); type: functional
# [13] = system: HEK293; experiment: cells; conditions: Homo sapiens;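 note: cells exposed to compound for 14 hours overnight before viability readout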
# [14] = target: T3, Carboxy-terminal domain RNA polymerase II polypeptide A small phosphatase 1 (Homo sapiens, UniProt Q9GZU7); experiment: CTDSP1 inhibitors, concentration-response, biochemical, absorbance readout, ultra-high-throughput screen actives (AID 540297); type: functional
# T3 sequence (Q9GZU7 whole entry): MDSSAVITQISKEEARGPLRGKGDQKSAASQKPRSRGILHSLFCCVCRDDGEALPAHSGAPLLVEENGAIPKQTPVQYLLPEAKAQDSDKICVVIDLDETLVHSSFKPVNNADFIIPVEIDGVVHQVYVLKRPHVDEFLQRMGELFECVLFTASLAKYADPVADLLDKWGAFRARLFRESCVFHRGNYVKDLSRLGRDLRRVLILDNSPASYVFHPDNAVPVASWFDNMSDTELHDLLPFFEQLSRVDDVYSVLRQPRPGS
# [15] = target: T4, Hexokinase HKDC1 (Homo sapiens, UniProt Q2TB90); experiment: inhibition of HKDC1 glucose phosphorylation – biochemical, W721R variant, dose response (AID 504729); type: functional
# T4 sequence (Q2TB90 whole entry): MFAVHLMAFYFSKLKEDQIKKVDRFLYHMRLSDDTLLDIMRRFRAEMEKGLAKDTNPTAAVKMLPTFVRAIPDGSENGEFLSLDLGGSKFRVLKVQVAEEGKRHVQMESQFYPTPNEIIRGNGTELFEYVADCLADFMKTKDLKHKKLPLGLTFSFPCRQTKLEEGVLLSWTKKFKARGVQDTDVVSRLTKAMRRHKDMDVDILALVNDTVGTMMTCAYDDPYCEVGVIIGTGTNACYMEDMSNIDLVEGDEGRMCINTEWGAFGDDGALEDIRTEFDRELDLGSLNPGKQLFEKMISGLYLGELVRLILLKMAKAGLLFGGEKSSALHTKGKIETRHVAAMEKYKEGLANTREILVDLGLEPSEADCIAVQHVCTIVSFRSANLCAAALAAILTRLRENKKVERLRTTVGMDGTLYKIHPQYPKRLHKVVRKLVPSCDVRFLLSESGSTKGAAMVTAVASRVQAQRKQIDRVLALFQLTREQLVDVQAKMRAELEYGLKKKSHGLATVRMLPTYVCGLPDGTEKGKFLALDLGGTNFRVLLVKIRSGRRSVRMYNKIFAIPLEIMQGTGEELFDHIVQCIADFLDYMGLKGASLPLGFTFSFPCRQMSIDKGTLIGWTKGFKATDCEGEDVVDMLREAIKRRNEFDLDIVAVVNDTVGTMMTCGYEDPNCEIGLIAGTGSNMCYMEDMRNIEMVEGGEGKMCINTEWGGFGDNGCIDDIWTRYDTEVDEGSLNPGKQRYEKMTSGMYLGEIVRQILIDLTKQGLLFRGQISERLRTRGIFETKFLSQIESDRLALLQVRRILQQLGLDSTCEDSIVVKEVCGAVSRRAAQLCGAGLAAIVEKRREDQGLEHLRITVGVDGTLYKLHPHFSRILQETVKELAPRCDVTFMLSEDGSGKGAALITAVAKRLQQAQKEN
# [16] = target: T5, Replicative DNA helicase DnaB (Mycobacterium tuberculosis, UniProt P9WMR3); experiment: DnaB intein splicing inhibitors, dose response, biochemical, cell-free fluorescence (AID 449749); type: functional
# T5 sequence (P9WMR3 whole entry): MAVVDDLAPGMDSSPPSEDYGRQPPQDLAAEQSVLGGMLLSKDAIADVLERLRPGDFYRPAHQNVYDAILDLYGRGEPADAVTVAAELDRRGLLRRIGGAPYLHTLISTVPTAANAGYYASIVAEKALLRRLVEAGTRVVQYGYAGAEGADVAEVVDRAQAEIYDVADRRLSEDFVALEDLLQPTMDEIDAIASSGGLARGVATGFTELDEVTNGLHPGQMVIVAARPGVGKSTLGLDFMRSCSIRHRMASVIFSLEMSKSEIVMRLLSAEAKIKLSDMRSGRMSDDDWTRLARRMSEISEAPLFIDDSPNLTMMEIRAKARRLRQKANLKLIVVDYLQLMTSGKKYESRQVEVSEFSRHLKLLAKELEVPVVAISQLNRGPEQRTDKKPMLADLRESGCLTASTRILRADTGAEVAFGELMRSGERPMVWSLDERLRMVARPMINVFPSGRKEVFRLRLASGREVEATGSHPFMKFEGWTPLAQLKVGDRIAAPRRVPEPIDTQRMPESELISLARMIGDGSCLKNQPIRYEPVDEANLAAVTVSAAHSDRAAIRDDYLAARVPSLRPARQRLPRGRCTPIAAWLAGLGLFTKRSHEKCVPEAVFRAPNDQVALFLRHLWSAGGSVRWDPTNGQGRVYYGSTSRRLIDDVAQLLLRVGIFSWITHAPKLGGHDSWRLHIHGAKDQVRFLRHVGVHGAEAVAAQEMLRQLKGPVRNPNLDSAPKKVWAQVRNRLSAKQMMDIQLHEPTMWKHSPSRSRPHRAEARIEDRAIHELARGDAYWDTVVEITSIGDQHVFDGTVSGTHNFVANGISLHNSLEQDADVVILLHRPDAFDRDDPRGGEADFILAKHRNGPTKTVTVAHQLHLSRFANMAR
# [17] = target: T6, Protein RecA (Mycobacterium tuberculosis, UniProt P9WHJ3); experiment: Fluorescence Cell-Free Homogeneous Dose Retest to Identify Inhibitors of RecA-Intein Splicing Activity. [Related pubchem assays (depositor defined):AID2097, AID2223, AID489010, AID492950]; type: functional
# T6 sequence (P9WHJ3 whole entry): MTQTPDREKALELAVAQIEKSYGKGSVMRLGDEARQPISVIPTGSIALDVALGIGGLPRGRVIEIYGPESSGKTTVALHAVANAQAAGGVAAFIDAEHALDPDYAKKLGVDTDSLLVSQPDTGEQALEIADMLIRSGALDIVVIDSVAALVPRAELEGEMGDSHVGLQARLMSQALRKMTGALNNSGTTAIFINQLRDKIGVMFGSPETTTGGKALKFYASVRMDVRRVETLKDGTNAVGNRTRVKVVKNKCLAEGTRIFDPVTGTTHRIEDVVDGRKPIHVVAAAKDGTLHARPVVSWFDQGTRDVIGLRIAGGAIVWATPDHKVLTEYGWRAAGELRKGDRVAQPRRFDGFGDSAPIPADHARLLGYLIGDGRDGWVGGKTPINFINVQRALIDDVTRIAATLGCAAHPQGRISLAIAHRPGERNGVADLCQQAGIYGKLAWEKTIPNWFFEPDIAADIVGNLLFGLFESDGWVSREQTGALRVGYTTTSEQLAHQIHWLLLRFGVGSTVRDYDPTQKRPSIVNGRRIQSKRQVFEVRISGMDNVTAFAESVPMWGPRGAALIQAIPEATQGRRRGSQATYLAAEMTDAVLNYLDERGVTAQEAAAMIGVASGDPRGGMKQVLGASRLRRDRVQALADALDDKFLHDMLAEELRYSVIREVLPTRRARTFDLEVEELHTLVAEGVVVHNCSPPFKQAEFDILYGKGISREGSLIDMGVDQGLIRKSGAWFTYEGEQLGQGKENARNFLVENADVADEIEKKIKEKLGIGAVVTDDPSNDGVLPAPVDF
# DNA dC->dU-editing enzyme APOBEC-3G, sequence (Q9HC16 whole entry): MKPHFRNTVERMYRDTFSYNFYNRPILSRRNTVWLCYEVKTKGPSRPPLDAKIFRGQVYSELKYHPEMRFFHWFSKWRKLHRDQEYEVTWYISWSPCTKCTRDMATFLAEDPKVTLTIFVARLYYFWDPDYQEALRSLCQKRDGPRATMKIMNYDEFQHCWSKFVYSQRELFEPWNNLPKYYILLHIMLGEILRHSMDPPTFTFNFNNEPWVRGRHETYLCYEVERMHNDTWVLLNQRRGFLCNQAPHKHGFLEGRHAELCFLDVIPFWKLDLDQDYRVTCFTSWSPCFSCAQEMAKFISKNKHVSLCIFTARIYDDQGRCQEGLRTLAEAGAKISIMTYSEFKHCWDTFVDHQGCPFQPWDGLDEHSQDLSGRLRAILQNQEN
# DNA dC->dU-editing enzyme APOBEC-3A, sequence (P31941 whole entry): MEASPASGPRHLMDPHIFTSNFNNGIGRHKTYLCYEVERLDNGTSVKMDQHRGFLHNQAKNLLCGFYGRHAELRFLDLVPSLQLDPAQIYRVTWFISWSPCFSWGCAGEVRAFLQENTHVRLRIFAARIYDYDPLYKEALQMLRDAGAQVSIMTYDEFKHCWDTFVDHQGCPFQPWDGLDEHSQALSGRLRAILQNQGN
# Keap1/Nrf2, sequence (Q16236 whole entry): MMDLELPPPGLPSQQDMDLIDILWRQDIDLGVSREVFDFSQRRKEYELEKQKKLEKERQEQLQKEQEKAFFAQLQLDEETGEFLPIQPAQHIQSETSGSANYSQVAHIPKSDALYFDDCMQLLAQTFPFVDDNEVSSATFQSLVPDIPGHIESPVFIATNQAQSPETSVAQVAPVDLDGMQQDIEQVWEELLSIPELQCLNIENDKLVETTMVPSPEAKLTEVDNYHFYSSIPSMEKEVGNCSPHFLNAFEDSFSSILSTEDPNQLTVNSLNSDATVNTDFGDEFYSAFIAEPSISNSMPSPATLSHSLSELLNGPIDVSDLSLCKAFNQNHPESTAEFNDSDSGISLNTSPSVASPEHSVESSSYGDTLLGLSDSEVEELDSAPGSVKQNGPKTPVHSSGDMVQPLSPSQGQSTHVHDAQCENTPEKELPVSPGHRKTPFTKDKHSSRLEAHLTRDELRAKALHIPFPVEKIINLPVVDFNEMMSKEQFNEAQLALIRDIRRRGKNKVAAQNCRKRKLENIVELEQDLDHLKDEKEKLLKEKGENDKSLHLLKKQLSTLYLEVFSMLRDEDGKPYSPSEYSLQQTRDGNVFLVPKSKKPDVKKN
# Keap1/Nrf2, sequence (Q14145 whole entry): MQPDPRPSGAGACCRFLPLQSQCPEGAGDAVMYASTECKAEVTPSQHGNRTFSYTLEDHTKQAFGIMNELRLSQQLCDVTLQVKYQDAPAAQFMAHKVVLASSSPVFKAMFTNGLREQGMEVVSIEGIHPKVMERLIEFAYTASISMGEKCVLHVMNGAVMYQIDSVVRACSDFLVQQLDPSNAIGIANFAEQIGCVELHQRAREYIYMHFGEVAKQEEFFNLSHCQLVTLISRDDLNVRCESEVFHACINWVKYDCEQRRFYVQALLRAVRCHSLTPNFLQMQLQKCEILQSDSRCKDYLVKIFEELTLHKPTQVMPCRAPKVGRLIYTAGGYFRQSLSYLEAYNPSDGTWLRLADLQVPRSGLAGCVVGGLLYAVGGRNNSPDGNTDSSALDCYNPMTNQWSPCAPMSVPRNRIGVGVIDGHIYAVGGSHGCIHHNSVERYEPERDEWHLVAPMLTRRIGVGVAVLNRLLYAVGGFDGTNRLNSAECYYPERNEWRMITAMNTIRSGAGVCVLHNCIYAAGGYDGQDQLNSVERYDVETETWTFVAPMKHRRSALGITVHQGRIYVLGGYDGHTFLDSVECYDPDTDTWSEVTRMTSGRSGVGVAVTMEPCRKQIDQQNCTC
# Eukaryotic translation initiation factor 4E, sequence (P63073 whole entry): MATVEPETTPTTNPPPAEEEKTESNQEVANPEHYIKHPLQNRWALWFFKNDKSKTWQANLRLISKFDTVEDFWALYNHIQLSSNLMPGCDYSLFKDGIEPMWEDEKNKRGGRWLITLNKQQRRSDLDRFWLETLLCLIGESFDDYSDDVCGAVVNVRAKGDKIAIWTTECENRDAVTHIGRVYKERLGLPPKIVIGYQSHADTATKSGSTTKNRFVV
# Tumor necrosis factor, sequence (P01375 whole entry): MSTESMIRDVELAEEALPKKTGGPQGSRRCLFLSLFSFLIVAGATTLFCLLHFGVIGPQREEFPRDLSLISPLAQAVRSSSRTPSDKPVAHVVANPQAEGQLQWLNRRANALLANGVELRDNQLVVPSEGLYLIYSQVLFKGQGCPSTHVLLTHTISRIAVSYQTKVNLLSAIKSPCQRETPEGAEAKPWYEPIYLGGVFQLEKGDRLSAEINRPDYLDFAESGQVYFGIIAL
# Peroxisome proliferator-activated receptor gamma/Nuclear receptor coactivator 2, sequence (P37231 whole entry): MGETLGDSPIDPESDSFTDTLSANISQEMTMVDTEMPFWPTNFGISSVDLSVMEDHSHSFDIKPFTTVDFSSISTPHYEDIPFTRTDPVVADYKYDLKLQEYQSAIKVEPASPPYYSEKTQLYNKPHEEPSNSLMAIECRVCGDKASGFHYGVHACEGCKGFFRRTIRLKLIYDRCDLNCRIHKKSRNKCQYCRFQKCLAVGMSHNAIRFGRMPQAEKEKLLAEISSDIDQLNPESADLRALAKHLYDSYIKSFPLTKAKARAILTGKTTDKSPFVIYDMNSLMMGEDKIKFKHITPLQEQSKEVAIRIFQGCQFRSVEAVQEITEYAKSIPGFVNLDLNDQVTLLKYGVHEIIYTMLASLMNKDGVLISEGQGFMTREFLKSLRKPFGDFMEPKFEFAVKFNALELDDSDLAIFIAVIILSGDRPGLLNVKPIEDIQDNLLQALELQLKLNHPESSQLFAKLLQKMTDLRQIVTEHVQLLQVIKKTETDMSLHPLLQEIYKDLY
# Peroxisome proliferator-activated receptor gamma/Nuclear receptor coactivator 2, sequence (Q15596 whole entry, further chain): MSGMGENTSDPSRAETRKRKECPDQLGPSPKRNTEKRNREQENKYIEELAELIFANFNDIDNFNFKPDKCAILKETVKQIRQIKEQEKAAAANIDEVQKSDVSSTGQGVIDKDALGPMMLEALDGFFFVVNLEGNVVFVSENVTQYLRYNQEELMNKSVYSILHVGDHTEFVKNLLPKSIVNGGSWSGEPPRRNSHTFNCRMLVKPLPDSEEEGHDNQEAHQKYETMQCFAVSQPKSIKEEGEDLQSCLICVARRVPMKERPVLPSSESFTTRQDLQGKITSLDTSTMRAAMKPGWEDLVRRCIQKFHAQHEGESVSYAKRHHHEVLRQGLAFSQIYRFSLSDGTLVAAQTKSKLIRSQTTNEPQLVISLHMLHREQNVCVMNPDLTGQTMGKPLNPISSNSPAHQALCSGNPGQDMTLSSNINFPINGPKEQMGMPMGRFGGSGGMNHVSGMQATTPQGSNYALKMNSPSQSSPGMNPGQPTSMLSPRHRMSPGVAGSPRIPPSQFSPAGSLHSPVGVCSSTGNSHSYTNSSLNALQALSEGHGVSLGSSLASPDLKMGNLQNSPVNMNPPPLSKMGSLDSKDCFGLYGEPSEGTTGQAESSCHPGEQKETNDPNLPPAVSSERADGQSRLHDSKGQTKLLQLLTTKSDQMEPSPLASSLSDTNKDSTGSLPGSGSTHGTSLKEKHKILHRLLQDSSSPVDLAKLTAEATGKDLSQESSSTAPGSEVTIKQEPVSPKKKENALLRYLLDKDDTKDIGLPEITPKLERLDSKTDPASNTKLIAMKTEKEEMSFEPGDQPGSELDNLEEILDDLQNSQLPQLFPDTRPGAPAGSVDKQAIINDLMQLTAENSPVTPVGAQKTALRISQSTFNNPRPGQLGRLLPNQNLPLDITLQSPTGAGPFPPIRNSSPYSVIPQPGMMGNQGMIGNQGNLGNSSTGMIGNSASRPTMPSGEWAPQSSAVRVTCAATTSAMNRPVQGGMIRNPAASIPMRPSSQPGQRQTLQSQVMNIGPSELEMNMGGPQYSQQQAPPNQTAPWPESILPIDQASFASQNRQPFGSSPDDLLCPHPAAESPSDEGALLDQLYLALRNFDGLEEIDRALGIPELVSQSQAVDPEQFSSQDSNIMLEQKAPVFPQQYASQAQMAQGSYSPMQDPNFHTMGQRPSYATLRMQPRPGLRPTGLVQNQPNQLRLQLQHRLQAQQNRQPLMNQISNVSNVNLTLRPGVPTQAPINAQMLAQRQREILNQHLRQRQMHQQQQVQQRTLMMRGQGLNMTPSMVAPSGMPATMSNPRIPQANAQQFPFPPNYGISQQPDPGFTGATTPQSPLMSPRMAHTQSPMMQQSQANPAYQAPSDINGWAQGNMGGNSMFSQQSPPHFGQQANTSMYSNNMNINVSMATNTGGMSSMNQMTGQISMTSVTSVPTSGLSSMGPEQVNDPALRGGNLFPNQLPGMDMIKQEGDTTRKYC
smiles,measurement,setting,value
O=C(Nc1ccccc1F)c1ccc(CSc2ncccn2)cc1,IC50,[1],4.88 µM (active)
same,IC50,[2],9.71 µM (active)
c1csc(-c2nn3c(Cn4cnc5ccccc54)nnc3s2)c1,IC50,[3],> 64 µM (inactive)
same,IC50,[4],< 0.1 µM (active)
CC1=C[C@@H]2c3cccc4[nH]cc(c34)C[C@H]2N(C)C1 [AGROCLAVINE],EC50,[5],11.2 µM (active)
same,EC50,[6],8.67 µM (inconclusive)
same,AC50,[7],38.4 µM (active)
CCOc1ccc(N(CC(=O)Nc2ccccc2)S(C)(=O)=O)cc1,IC50,[1],3.89 µM (active)
same,IC50,[2],4.76 µM (active)
CCOC(=O)C1CCN(C(=O)Cc2cccc3ccccc23)CC1,IC50,[1],5.89 µM (active)
same,IC50,[2],5.83 µM (active)
COc1ccc(Br)cc1CNCC1CCCO1 (stereo unspecified),AC50,[7],> 52 µM (inactive)
CCn1c(=O)cc(SCC(=O)N2CCN(C(=O)c3ccco3)CC2)c2ccccc21,EC50,[8],> 79.4 µM (inactive)
same,EC50,[9],> 79.4 µM (not active)
same,EC50,[10],> 79.4 µM (not active)
same,IC50,[11],> 80 µM (inactive)
C[n+]1cc(-c2ccccc2)n2c1CCCCC2,IC50,[1],1.66 µM (active)
same,IC50,[2],2.3 µM (active)
N#C/C(=C\c1c[nH]c2ccccc12)C(=O)NCC1CCCO1 (stereo unspecified),IC50,[1],5.69 µM (active)
same,IC50,[2],5.05 µM (active)
CSc1ccc(NC(=O)c2ccc(CN3CCCCC3)cc2)cc1,IC50,[12],19.6 µM (active)
same,IC50,[13],> 20 µM (inactive)
COc1ccc2nc3ccccc3nc2c1NC(=O)c1ccccc1Cl,EC50,[5],> 300 µM (not active)
same,EC50,[6],> 300 µM (not active)
same,AC50,[7],29.2 µM (active)
COc1ccc(OC)c(NC(=O)COC(=O)c2cc3c(s2)CCC3)c1,IC50,[3],50 µM (inactive)
same,IC50,[14],2.39 µM (active)
CC(C)(C)c1c(Cl)c(O)c(-c2ccccc2)c(=O)n1-c1ccccc1,IC50,[3],14.1 µM (active)
same,IC50,[15],8.83 µM (active)
same,AC50,[16],20.1 µM (active)
same,EC50,[17],27.2 µM (active)
